Structures are written as SMILES.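 Dose response: 5 concentrations. Exposure: 48 h. Format: 96-well plates. Endpoint: linear interpolation; highest concentration if not reached. The concentration for 50% growth inhibition is given as GI50.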 The source made the active and inactive calls. Rule as the data show it: active = GI50 up to about 1.1 µM and inactive = higher.

What all share (test): DTP human tumour cell line panel, 48 h
Test [1] has as its system SW-620.
Test [2] deals with U-251.
Test [3] relates to XF498.
Test [4] has as its system KM-20L2.
Test [5] relates to COLO 205.
In test [6] the test system is CAKI-1.
For test [7], the system named is SF-539.
Test [8] concerns M19-MEL.
The test system of test [9] is SK-MEL-28.
Test [10] relates to SK-OV-3.
Test [11] concerns DMS-273.
Test [12] deals with DMS-114.
Test [13] relates to OVCAR-4.
Test [14] deals with HOP-18.
Test [15] deals with SN12C.
The subject of test [16] is HOP-92.
In test [17] the test system is 786-0.

For the compound `Cc1c2ccnc(C(F)(F)F)c2cc2c1[nH]c1ccccc12`, the GI50 in test [1] was > 125 µM (inactive); in test [2], > 125 µM (inactive); in [3], 12 µM (inactive); in [4], > 125 µM (inactive); in [5], > 125 µM (inactive); in test [6], > 125 µM (inactive). In addition, the GI50 in test [7] is 99.1 µM (inactive); in [8], > 125 µM (inactive); in test [9], > 125 µM (inactive); in [10], 36.3 µM (inactive); in [11] it was > 125 µM (inactive); in [12] it was > 125 µM (inactive). Moreover, the GI50 in test [13] was > 125 µM (inactive); in [14], 0.673 µM (active); in [15] it was > 125 µM (inactive); in test [16] it was 8.63 µM (inactive).
For the compound `O=C(O)c1ccc([Se][Se]c2ccc(C(=O)O)cc2)cc1`, the GI50 in test [1] is 32.4 µM (inactive); in test [2], 21.1 µM (inactive); in [3], 31.7 µM (inactive); in test [4], 33 µM (inactive); in test [5], 32.9 µM (inactive); in test [6], 19.4 µM (inactive). For the same compound, the GI50 is 36.1 µM (inactive) in test [7]; 19.5 µM (inactive) in [8]; 20.7 µM (inactive) in test [9]; 34 µM (inactive) in test [17]; 21.9 µM (inactive) in [11]; 20.6 µM (inactive) in [12]. Also, the GI50 is 19.2 µM (inactive) in test [13], 29.4 µM (inactive) in test [14] and 37.5 µM (inactive) in test [15].
As for `CC(O)C(O)C(N)CC=O` (stereo not drawn), the GI50 was > 158 µM (inactive) in test [1]; > 500 µM (inactive) in [2]; > 129 µM (inactive) in [3]; > 500 µM (inactive) in test [4]; > 500 µM (inactive) in test [5]; > 500 µM (inactive) in [6]. For the same compound, the GI50 in [7], in test [8], in test [9], in test [10], in [11] and in test [12] was > 500 µM (inactive) throughout. Also, the GI50 in test [13], in [14], in [15] and in test [16] was > 500 µM (inactive) each time.
Turning to `O=C(CCl)NC(Cc1ccc(F)cc1)C(=O)O` (stereo not drawn), the GI50 in [1], in [2], in [3], in test [4], in test [5] and in test [6] was > 100 µM (inactive) throughout. Moreover, the GI50 in [7], in [8], in [9], in test [10], in [11] and in test [12] was > 100 µM (inactive) throughout. In addition, the GI50 in test [13], in test [14], in test [15] and in test [16] was > 100 µM (inactive) in each case.

As usually defined, the GI50 is the concentration giving 50% growth inhibition.

Source of the values: ChEMBL document CHEMBL1201862, “PubChem BioAssay data set” (2004).
